Laboratory results taken from publication PMC7340670, “Phase I study of TAS-115, a novel oral multi-kinase inhibitor, in patients with advanced solid tumors” (Investigational New Drugs, 2019).

Test system: patients with advanced solid tumors
Assay: Phase I study (JapicCTI-132333): safety, tolerability, DLT, MTD, RP2D
Type: in vivo
Description: This is an open-label, nonrandomized, dose-escalation study conducted at five sites in Japan. The study has three parts: a dose-escalation cohort using a traditional 3 + 3 design (part 1), a dosing schedule investigation cohort (part 2), and an expansion cohort to assess the safety at the MTD or lower doses among more patients (expansion part).
For each dose level in part 1, three to six patients were enrolled. DLTs were evaluated during the first cycle. […] The study drug was orally administered under empty stomach conditions (1 h before or 2 h after a meal) with a cup of water. […] In the expansion part, ≤MTD was investigated for exposure and safety.
All patients in parts 1 and 2 were required to be hospitalized for cycle 1 in order to observe AE. Patients continued to receive the study drug until disease progression or intolerable toxicity. […] The number of dose reductions was up to 2, and the minimum dose was 100 mg/day. […]

[1] = Part 1, 200–800 mg/day, SID (N = 21), patients (%)
[2] = Part 2 + Expansion part, 450 or 650 mg/day, 5-on/2-off (N = 61), patients (%)

CNC(=O)c1cc2c(Oc3ccc(NC(=S)NC(=O)Cc4ccccc4)cc3F)ccnc2cc1OC [TAS-115]
CRPC patients with AEs requiring dose reduction (650 mg/day, early expansion part): five of six
Treatment-related adverse events: Alanine aminotransferase increased, Any Grade [1]: 11 (52.4)
Treatment-related adverse events: Alanine aminotransferase increased, ≥ Grade 3 [1]: 0 (0.0)
Treatment-related adverse events: Amylase increased, Any Grade [1]: 8 (38.1)
Treatment-related adverse events: Amylase increased, ≥ Grade 3 [1]: 3 (14.3)
Treatment-related adverse events: Anemia, Any Grade [1]: 2 (9.5)
Treatment-related adverse events: Anemia, ≥ Grade 3 [1]: 2 (9.5)
Treatment-related adverse events: Any Events, Any Grade [1]: 21 (100.0)
Treatment-related adverse events: Any Events, ≥ Grade 3 [1]: 13 (61.9)
Treatment-related adverse events: Aspartate aminotransferase increased, Any Grade [1]: 15 (71.4)
Treatment-related adverse events: Aspartate aminotransferase increased, ≥ Grade 3 [1]: 0 (0.0)
Treatment-related adverse events: Decreased appetite, Any Grade [1]: 7 (33.3)
Treatment-related adverse events: Decreased appetite, ≥ Grade 3 [1]: 1 (4.8)
Treatment-related adverse events: Diarrhea, Any Grade [1]: 3 (14.3)
Treatment-related adverse events: Diarrhea, ≥ Grade 3 [1]: 0 (0.0)
Treatment-related adverse events: Edema, Any Grade [1]: 6 (28.6)
Treatment-related adverse events: Edema, ≥ Grade 3 [1]: 0 (0.0)
Treatment-related adverse events: Face edema, Any Grade [1]: 6 (28.6)
Treatment-related adverse events: Face edema, ≥ Grade 3 [1]: 0 (0.0)
Treatment-related adverse events: Fatigue, Any Grade [1]: 10 (47.6)
Treatment-related adverse events: Fatigue, ≥ Grade 3 [1]: 0 (0.0)
Treatment-related adverse events: Hypophosphatemia, Any Grade [1]: 6 (28.6)
Treatment-related adverse events: Hypophosphatemia, ≥ Grade 3 [1]: 5 (23.8)
Treatment-related adverse events: Leukocytopenia, Any Grade [1]: 8 (38.1)
Treatment-related adverse events: Leukocytopenia, ≥ Grade 3 [1]: 2 (9.5)
Treatment-related adverse events: Lipase increased, Any Grade [1]: 6 (28.6)
Treatment-related adverse events: Lipase increased, ≥ Grade 3 [1]: 5 (23.8)
Treatment-related adverse events: Nausea, Any Grade [1]: 7 (33.3)
Treatment-related adverse events: Nausea, ≥ Grade 3 [1]: 0 (0.0)
Treatment-related adverse events: Neutropenia, Any Grade [1]: 8 (38.1)
Treatment-related adverse events: Neutropenia, ≥ Grade 3 [1]: 3 (14.3)
Treatment-related adverse events: Rash, Any Grade [1]: 12 (57.1)
Treatment-related adverse events: Rash, ≥ Grade 3 [1]: 2 (9.5)
Treatment-related adverse events: Thrombocytopenia, Any Grade [1]: 8 (38.1)
Treatment-related adverse events: Thrombocytopenia, ≥ Grade 3 [1]: 1 (4.8)
Treatment-related adverse events: Vomiting, Any Grade [1]: 4 (19.0)
Treatment-related adverse events: Vomiting, ≥ Grade 3 [1]: 0 (0.0)
Treatment-related adverse events: Alanine aminotransferase increased, Any Grade [2]: 23 (37.7)
Treatment-related adverse events: Alanine aminotransferase increased, ≥ Grade 3 [2]: 1 (1.6)
Treatment-related adverse events: Amylase increased, Any Grade [2]: 10 (16.4)
Treatment-related adverse events: Amylase increased, ≥ Grade 3 [2]: 1 (1.6)
Treatment-related adverse events: Anemia, Any Grade [2]: 21 (34.4)
Treatment-related adverse events: Anemia, ≥ Grade 3 [2]: 9 (14.8)
Treatment-related adverse events: Any Events, Any Grade [2]: 60 (98.4)
Treatment-related adverse events: Any Events, ≥ Grade 3 [2]: 47 (77.0)
Treatment-related adverse events: Aspartate aminotransferase increased, Any Grade [2]: 31 (50.8)
Treatment-related adverse events: Aspartate aminotransferase increased, ≥ Grade 3 [2]: 4 (6.6)
Treatment-related adverse events: Decreased appetite, Any Grade [2]: 26 (42.6)
Treatment-related adverse events: Decreased appetite, ≥ Grade 3 [2]: 6 (9.8)
Treatment-related adverse events: Diarrhea, Any Grade [2]: 14 (23.0)
Treatment-related adverse events: Diarrhea, ≥ Grade 3 [2]: 0 (0.0)
Treatment-related adverse events: Edema, Any Grade [2]: 10 (16.4)
Treatment-related adverse events: Edema, ≥ Grade 3 [2]: 0 (0.0)
Treatment-related adverse events: Face edema, Any Grade [2]: 11 (18.0)
Treatment-related adverse events: Face edema, ≥ Grade 3 [2]: 0 (0.0)
Treatment-related adverse events: Fatigue, Any Grade [2]: 27 (44.3)
Treatment-related adverse events: Fatigue, ≥ Grade 3 [2]: 1 (1.6)
Treatment-related adverse events: Hypophosphatemia, Any Grade [2]: 20 (32.8)
Treatment-related adverse events: Hypophosphatemia, ≥ Grade 3 [2]: 13 (21.3)
Treatment-related adverse events: Leukocytopenia, Any Grade [2]: 18 (29.5)
Treatment-related adverse events: Leukocytopenia, ≥ Grade 3 [2]: 7 (11.5)
Treatment-related adverse events: Lipase increased, Any Grade [2]: 9 (14.8)
Treatment-related adverse events: Lipase increased, ≥ Grade 3 [2]: 4 (6.6)
Treatment-related adverse events: Nausea, Any Grade [2]: 26 (42.6)
Treatment-related adverse events: Nausea, ≥ Grade 3 [2]: 1 (1.6)
Treatment-related adverse events: Neutropenia, Any Grade [2]: 21 (34.4)
